Residues, ends and D or L forms follow the SMILES beside them. *: point of attachment. Cbz = O=C(OCc1ccccc1)*
Key:
NRF2 [1] = test: ARE-luciferase assay for NRF2 activity in A549-ARE cells; type: cell-based
Method: In addition, A549-ARE cells were firstly dispensed into 5×10^3 cells per well in a 96 well plate, and each of the clinical compounds was treated with various concentrations (1 μM or 5 μM) after 24 hours. After 24 hours, 30 μl of a lysis buffer was added, and the mixture was dissolved at 4° C. for 40 minutes using a rocker. 20 μl of the dissolved product was added to a 96-well white plate and 100 μl of a luciferase substrate buffer having the following composition was added thereto and luciferase activity was measured by using a plate reader.
The remaining dissolved product was diluted five times with distilled water (DW) and the protein concentration was measured by the Bradford assay (BioRad). Specifically, 200 μl of the Bradford reagent (Coomassie Brilliant Blue G-250) diluted […] with distilled water was reacted with 5 μl of the remaining dissolved product and absorbance was measured at 595 nm. The protein concentration of the dissolved products was calculated by the same experiment using BSA solution as a standard protein. The luciferase value was calibrated by dividing the luciferase value measured above by the measured protein concentration.
Namely, the luciferase assays were performed using […] cells as the method of the Example 1.

NRF2 [2] = test: Western blotting of NRF2 protein in A549 cells; type: cell-based
Method: (§1) Specifically, for Western blotting, the A549 cells expressing Tet-pLKO-NCshRNA (negative control) and three Tet-pLKO-NRF2 shRNAs were treated with doxycycline for 3 days and 6 days, followed by separation of proteins. Each separated 10 μg of the protein was loaded on 8% acrylamide gel, electrophoresed, transferred to nitrocellulose (NC) membrane, and NRF2 antibody (Cell signaling, 1:1000) and actin antibody (SCBT, 1:1000) were diluted in TBST (Tris-Buffered Saline with Tween 20) buffer containing 5% skim milk and reacted overnight at 4° C. Subsequently, the secondary antibody was reacted for 1 hour, washed with TBST, and the protein expression level was measured using ECL (Enhanced chemiluminescence).
Firstly, the A549-tet-on cells transfected with the vector containing GCR-shRNA were constructed and after the treatment with doxycycline and clobetasol propionate, and protein extracts were prepared by hemolysis with cell lysis buffer (Cell signaling technology) supplemented with protease inhibitor cocktail (EMD millipore) to perform Western blotting. Then, western blotting was carried out in the same manner as in the Example 1. At this time, the concentration of the protein was determined by performing a Bradford assay according to the Example 1. In addition, luciferase assays were carried out in the same manner as in the Example 1.
(§2) According to accumulated research results, NRF2 protein levels can be regulated by mRNA transcription, or proteasome related degradation. To confirm whether NRF2 is suppressed through mRNA transcription inhibition or NRF2 is suppressed by promoting proteasome-related degradation, real-time PCR was performed on the cells, and MG132, a proteasome inhibitor, was treated and Western blotting was performed in the same manner as in the Example 1.
In general, proteasome degradation of the NRF2 protein consists of two pathways as shown in FIG. 5a: i.e. a pathway by KEAP1 and a pathway by GSK3-β-TrCP. […]

NRF2 [3] = test: Western blotting of nuclear and cytoplasmic fractions (NRF2 migration to the nucleus); type: cell-based
From the text: Furthermore, GSK3 inhibits the migration of NRF2 to the nucleus, as known so far.

NRF2 [4] = test: Real-time PCR of NRF2 mRNA in A549 cells; type: cell-based
Method: as §2
Specifically, for real-time PCR, total RNA was extracted from A549 cells using TRIZol (Invitrogen). Then, 1 μg of total RNA was reverse transcribed to cDNA using oligo dT primer and SuperScript II Reverse Transcriptase according to the manufacturer's instructions (Invitrogen). Thereafter, PCR was performed according to the manufacturer's instructions (Affymetrix) using HotStart-IT SYBR Green qPCR Master Mix.

[5] = system: NRF2 target proteins (G6PD, PGD, ME1, GCLM, AKR1B10 and AKR1C3); test: Western blotting of NRF2 target proteins in KEAP1 mutant cells; type: cell-based; conditions: 2, 4 or 5 days
Method: In order to confirm the effect of glucocorticoid on cells having high NRF2-activity, KEAP1 mutant cells (A549 and H2228) were treated with clobetasol propionate for 2 days, 4 days or 5 days, the expression of major NRF2 target proteins (G6PD, PGD, ME1, GCLM, AKR1B10 and AKR1C3) associated with redox regulation was measured by the Western blotting. As a control, the cell was used, in which NRF2-shRNA was transformed to H2228 cell line to inhibit NRF2 expression.

[6] = system: A549 and H2228 cell lines; test: Hydrogen peroxide (active oxygen) measurement with CMH2DCF-DA; type: cell-based
Method: In addition, because ME1 and GCLM proteins have detoxification activity of hydrogen peroxide, to confirm this change, the amount of hydrogen peroxide after the treatment with clobetasol propionate was measured as follows: The A549 and H2228 cell lines were cultured in 5 μM CMH2DCF-DA (Invitrogen) after the incubation for 30 minutes, the cultured cells were washed twice with phosphate buffered saline and incubated in the dark for 40 minutes with 90% dimethylsulfoxide (DMSO) and 10% PBS, and the fluorescent dye was released. After the culture, the supernatant of the culture liquid was dispensed into a 96-well plate and the amount of fluorescence was measured at 480/530 nm. For standardization of the measured fluorescence intensity, the cells remaining after removing the supernatant and washing with PBS, were stained with a crystal violet solution (20% methanol and 0.5% crystal violet) for 10 minutes at room temperature. After washing three times, the incubation was performed for solubilization in 1% SDS solution and absorbance at 570 nm was measured.

A549 = test: Soft agar assay, A549; type: cell-based; conditions: A549 (KEAP1-mutant, LKB1-mutant), 2 weeks
Method: (§3) The synergistic anticancer effects of the treatment of clobetasol propionate sole and the combined use with rapamycin, an mTOR inhibitor on LKB1/KEAP1 normal lung cancer cell line H1299, KEAP1 mutant cell line H2228, LKB1/KEAP1 mutant lung cancer cell lines A549 and H460 were analyzed by soft agar assay. In order to confirm whether the tumor inhibitory effect of clobetasol propionate was due to NRF2 inhibition, the effect was compared with tumor suppression effect in NRF2 knock-down lung cancer cell line using NRF2-shRNA-2, which was used in the Example 2.
(§4) Specifically, […] of a 0.7% agar-containing DMEM medium was added into a 12-well plate and was solidified (bottom agar) and 300 μl of a DMEM medium containing 3×10^3 cells and 0.35% agar was placed on the solidified agar medium and solidified (top agar+/− Doxycycline). After solidification, 250 μl of DMEM medium (+/− Doxycycline) was added and the number of colonies formed after culturing for 2 weeks in a CO2 incubator was determined, and the result was shown in FIGS. 7a to 7e.

H2228 = test: Soft agar assay, H2228; type: cell-based; conditions: H2228 (KEAP1-mutant, LKB1-normal), 2 weeks
Method: as §3, §4

H1299 = test: Soft agar assay, H1299; type: cell-based; conditions: H1299 (KEAP1-normal, LKB1-normal), 2 weeks
Method: as §3, §4

H460 = test: Soft agar assay, H460; type: cell-based; conditions: H460 (KEAP1-mutant, LKB1-mutant), sole treatment
Method: as §3, §4
Thereafter, the synergistic effect was analyzed when clobetasol propionate and rapamycin were simultaneously treated, or NRF2 was knocked down using NRF2-shRNA and treated with rapamycin.

A549-luc-C8 cells = test: Xenograft assay with A549 cell line, tumor volume; type: in vivo, Balb/c-nu mice; conditions: 40 days
From the text: Thereafter, mice were sacrificed in a 7.5% CO2 chamber and tumors were obtained for further analysis.

[7] = Xenograft assay, body weight / side effects; type: in vivo, Balb/c-nu mice; conditions: all treatment groups, 40 days
Method: On the other hand, xenograft assay was performed using A549 cell line. Specifically, Balb/c-nu mice (6-8 weeks of age, Orient Bio, Seongnam, Korea) were prepared to perform tumor genografts and A549-luc-C8 cells (Perkin Elmer, 5.0×10^6/head) were injected subcutaneously into the mice. Two weeks later, when the size of tumors reached 50-100 mm^3, mice were divided to 6 groups: a control group administered with only vehicle (200 μl of PBS containing 1.2% DMSO, 0.25% PEG 400 and 0.25% tween 80), a group administered with 0.5 mg/kg of clobetasol propionate (CP), a group administered with 1 mg/kg of clobetasol propionate, a group administered with 1 mg/kg of rapamycin, and Combination 1 (CP 0.5 mg/kg+rapamycin 1 mg/kg) and Combination 2 (CP 1 mg/kg+rapamycin 1 mg/kg). Then, for the next 40 days, the vehicle and rapamycin (n=5 per group) were injected intraperitoneally daily (5 days per week) and clobetasol propionate was injected intraperitoneally once every 2 days (3 days per week).
Primary tumor size and body weight were measured every 3 to 4 days by a caliper and a balance, and the volume of the tumor was V (mm^3)=(A×B^2)/2 (V is volume, A Is the long diameter and B is the short diameter).

NRF2 [8] = test: Verification of doxycycline-inducible NRF2-shRNA in A549-ARE cells (Western blotting, luciferase, GFP); type: cell-based; conditions: doxycycline-induced, compared among three NRF2-shRNAs
Method: In order to construct a Tet-inducible shRNA expression system, the following shRNAs were inserted into a tet-pLKO-pyro vector (Dmitri Wiederschain: Addgene plasmid #21915) and then A549-ARE cell line expressing doxycycline-inducible NRF2-shRNA was established by the transduction.
Then, 0.2 μg/mL of doxycycline (DOX; Clontech) was treated every 2 days in the medium to induce NRF2-shRNA expression. Thereafter, the NRF2 expression inhibition efficiency was verified by Western blotting, luciferase activity measurement and GFP expression measurement using a fluorescence microscope.
as §1

[9] = KEAP1 mutant A549 cells, co-treatment with clobetasol propionate
[10] = co-treatment with clobetasol propionate
[11] = A549-tet-on GCR-shRNA cells, effect blocked by inhibition of GCR expression

## Cc1c[nH]c(-c2cnc(NCCNc3ccc(C#N)cn3)nc2-c2ccc(Cl)cc2Cl)n1 [GSK3 inhibitor, CT99021]
NRF2 [1]; [9]
  inhibition of activity of NRF2 induced by clobetasol propionate, on GSK3 inhibitor treatment: inhibited
NRF2 [2]; [9]
  NRF2 proteolysis induced by clobetasol propionate, on GSK3 inhibitor treatment: inhibited
NRF2 [3]; under the treatment of MG132, co-treatment with clobetasol propionate
  effect of clobetasol propionate on NRF2 migration into the nucleus, on GSK3 inhibitor treatment: completely blocked

## CC(C)C[C@@H](C=O)NC(=O)[C@H](CC(C)C)NC(=O)[C@H](CC(C)C)NC(=O)OCc1ccccc1 [MG132] (Cbz-Leu-Leu-Leu-aldehyde)
NRF2 [1]; [10]
  inhibition of NRF2 activity by glucocorticoids, on MG132 treatment: does not recover
NRF2 [2]; [10]
  amount of NRF2 protein inhibited by clobetasol propionate, on MG132 treatment: recovered

## CCC(=O)O[C@]1(C(=O)CCl)[C@@H](C)C[C@H]2[C@@H]3CCC4=CC(=O)C=C[C@]4(C)[C@@]3(F)[C@@H](O)C[C@@]21C [clobetasol propionate]
NRF2 [1]; 100 nM, measured at 8, 24 and 48 hours
  time for which inhibition of NRF2 activity was maintained: at least 48 hours
NRF2 [1]; 1 μM
  NRF2 inhibitory effect at 1 μM compared among 13 GCs-based drugs: most excellent inhibitory effect
NRF2 [1]; [11]
  activity of the NRF2 protein (luciferase): significantly reduced
NRF2 [1]; concentration comparison of 13 GCs-based drugs
  concentration from which excellent NRF2 inhibitory effect is shown (luciferase): ≥ 1 nM
NRF2 [2]; [11]
  level of the NRF2 protein (Western blot): significantly reduced
NRF2 [4]
  mRNA level of NRF2: did not affect
NRF2 [3]; under the treatment of MG132
  migration of NRF2 into the nucleus: inhibited
[5]; A549 cell line
  NRF2 target protein expression: effectively inhibited
[5]; H2228 cell line
  expression of NRF2 target which has antioxidative activity: effectively inhibited
[6]; A549
  active oxygen (hydrogen peroxide): significantly increased
[6]; H2228
  active oxygen (hydrogen peroxide): significantly increased
A549
  cell growth (colonies in soft agar): strongly inhibited
H2228
  cell growth (colonies in soft agar): strongly inhibited
H1299
  cell growth (colonies in soft agar): did not significantly affect
H460
  cell growth (colonies in soft agar): slightly inhibited
A549-luc-C8 cells; 0.5 mpk intraperitoneally once every 2 days
  anticancer effect (tumor volume): distinct anticancer effect
A549-luc-C8 cells; 1 mpk intraperitoneally once every 2 days
  anticancer effect (tumor volume): distinct anticancer effect
[7]
  body weight of the mice: no significant change

## CO[C@H]1C[C@@H]2CC[C@@H](C)[C@@](O)(O2)C(=O)C(=O)N2CCCC[C@H]2C(=O)O[C@H]([C@H](C)C[C@@H]2CC[C@@H](O)[C@H](OC)C2)CC(=O)[C@H](C)/C=C(\C)[C@@H](O)[C@@H](OC)C(=O)[C@H](C)C[C@H](C)/C=C/C=C/C=C/1C [rapamycin]
[7]
  body weight of the mice: no significant change

## NRF2sh-2: doxycyclin-inducible NRF2-shRNA, SEQ. NO. 2 of Table 1 (CCGGGCTCCTACTGTGATGTGAAATCTCGAGATTTCACATCACAGTAGGAGCTTTTTG)
NRF2 [8]
  inhibition of NRF2 protein expression, luciferase activity and GFP signal: most effectively

Reference: US11260062B2, “Pharmaceutical composition for treatment of lung cancer comprising glucocorticoid-based compound” (AJOU UNIVERSITY INDUSTRY-ACADEMIC COOPERATION FOUNDATION, priority 2015, dated 2022)
